Measured values reported in ChEMBL document CHEMBL1127583, “Discovery of a potent, peripherally selective trans-3,4-dimethyl-4-(3-hydroxyphenyl)piperidine opioid antagonist for the treatment of gastrointestinal motility disorders” (J Med Chem, 1994).

Tests used:
Mus musculus [1] = assay: Tested for reduction in the analgesic response to morphine after subcutaneous administration of 1.25 mg/kg in abdominal stretching assay; format: functional, Abdomen
[2] = target: Kappa-type opioid receptor (Cavia porcellus) (UniProt P41144); assay: Tested for binding affinity towards kappa receptor in presence of [3H]EKC radioligand at 10 nM
Kappa-type opioid receptor (Cavia porcellus), sequence (P41144 whole entry): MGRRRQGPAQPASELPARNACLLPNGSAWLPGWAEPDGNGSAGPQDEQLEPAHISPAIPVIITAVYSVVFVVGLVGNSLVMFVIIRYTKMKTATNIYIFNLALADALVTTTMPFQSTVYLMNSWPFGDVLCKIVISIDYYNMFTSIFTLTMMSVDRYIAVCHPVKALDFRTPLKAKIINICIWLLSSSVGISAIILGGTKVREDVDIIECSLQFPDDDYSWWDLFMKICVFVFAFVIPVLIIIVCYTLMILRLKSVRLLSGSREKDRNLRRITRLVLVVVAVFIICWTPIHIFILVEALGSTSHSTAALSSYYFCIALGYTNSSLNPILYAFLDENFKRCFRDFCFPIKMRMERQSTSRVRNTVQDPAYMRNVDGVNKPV

Mus musculus [3] = assay: Tested for effective dose required to produce diarrhea in morphine dependent mice after peroral administration; format: functional
[4] = target: Kappa-type opioid receptor (Cavia porcellus) (UniProt P41144); assay: Tested for binding affinity towards kappa receptor in presence of [3H]EKC radioligand at 100 nM
Mu-type opioid receptor [5] = target: Mu-type opioid receptor (Rattus norvegicus, UniProt P33535); assay: Tested for binding affinity towards mu receptor in presence of [3H]NAL radioligand
Mu-type opioid receptor (Rattus norvegicus, UniProt P33535), sequence (P33535 whole entry): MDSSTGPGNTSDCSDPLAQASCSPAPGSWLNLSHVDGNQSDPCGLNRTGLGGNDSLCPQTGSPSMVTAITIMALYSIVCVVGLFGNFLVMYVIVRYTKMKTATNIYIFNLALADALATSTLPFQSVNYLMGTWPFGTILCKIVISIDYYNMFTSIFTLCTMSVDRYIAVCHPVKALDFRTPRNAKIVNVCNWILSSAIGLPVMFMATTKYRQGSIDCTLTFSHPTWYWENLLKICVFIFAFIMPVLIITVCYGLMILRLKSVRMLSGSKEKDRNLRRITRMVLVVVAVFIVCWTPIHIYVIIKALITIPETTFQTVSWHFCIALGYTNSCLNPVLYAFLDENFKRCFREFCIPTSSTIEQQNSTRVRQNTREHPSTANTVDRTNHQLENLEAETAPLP

Mus musculus [6] = assay: Tested for effective dose required to produce diarrhea in morphine dependent mice after subcutaneous administration; format: functional
[7] = target: Delta-type opioid receptor (Rattus norvegicus, UniProt P33533); assay: Tested for binding affinity towards delta receptor in rat brain homogenates using [3H]D-Ala2-[…]-enkephalin as radioligand; format: tissue-based
Delta-type opioid receptor (Rattus norvegicus, UniProt P33533), sequence (P33533 whole entry): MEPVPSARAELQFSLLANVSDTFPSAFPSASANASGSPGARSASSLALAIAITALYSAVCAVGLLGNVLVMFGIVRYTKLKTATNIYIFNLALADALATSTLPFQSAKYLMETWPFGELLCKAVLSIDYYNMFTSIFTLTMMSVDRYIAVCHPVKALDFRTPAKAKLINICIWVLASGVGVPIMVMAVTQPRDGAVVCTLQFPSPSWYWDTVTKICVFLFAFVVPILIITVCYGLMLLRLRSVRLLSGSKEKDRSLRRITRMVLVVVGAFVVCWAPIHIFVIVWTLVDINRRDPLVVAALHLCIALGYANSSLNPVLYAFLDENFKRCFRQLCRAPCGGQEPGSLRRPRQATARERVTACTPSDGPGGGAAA

[8] = target: Delta-type opioid receptor (Mus musculus, UniProt P32300); assay: Tested for its antagonist activity against (DPDE)delta receptor in mouse vas deferens; format: functional, tissue-based; conditions: read-out: pA2 (converted)
Delta-type opioid receptor (Mus musculus, UniProt P32300), sequence (P32300 whole entry): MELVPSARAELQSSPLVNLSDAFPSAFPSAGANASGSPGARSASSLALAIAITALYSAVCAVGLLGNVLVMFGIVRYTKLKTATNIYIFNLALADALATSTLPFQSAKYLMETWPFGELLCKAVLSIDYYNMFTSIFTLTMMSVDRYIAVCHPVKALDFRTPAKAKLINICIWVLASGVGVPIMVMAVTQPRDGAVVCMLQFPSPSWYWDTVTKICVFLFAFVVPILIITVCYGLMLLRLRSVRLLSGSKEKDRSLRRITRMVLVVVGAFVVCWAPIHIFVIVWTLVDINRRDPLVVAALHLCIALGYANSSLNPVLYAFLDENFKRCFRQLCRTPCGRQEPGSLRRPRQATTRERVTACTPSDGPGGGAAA

[9] = target: T1, Kappa-type opioid receptor (Cavia porcellus, UniProt P41144); assay: Tested for its antagonist activity against kappa receptor using U-69,593 […] in isolated guinea pig ileum; format: functional, tissue-based; conditions: read-out: pA2 (converted)
T1 sequence (P41144 whole entry): as the sequence (P41144 whole entry) above

Mu-type opioid receptor [10] = target: Mu-type opioid receptor (Cavia porcellus, UniProt P97266); assay: Tested for its antagonist activity against mu receptor using DAMGO […] in isolated guinea pig ileum; format: functional, tissue-based; conditions: read-out: pA2 (converted)
Mu-type opioid receptor (Cavia porcellus, UniProt P97266), sequence (P97266 whole entry): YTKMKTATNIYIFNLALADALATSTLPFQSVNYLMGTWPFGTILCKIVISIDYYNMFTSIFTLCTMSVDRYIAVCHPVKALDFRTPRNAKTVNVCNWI

[11] = target: T1, Kappa-type opioid receptor; assay: Tested for binding affinity towards kappa receptor in presence of [3H]EKC radioligand
[12] = target: Mu-type opioid receptor (Rattus norvegicus) (UniProt P33535); assay: Tested for binding affinity towards mu receptor in presence of [3H]NAL radioligand at 10 nM
Mu-type opioid receptor (Rattus norvegicus), sequence (P33535 whole entry): as the sequence (P33535 whole entry) above

[13] = target: Mu-type opioid receptor (Rattus norvegicus) (UniProt P33535); assay: Tested for binding affinity towards mu receptor in presence of [3H]NAL radioligand at 100 nM
[14] = Mus musculus, po, read-out: ED50
[15] = Mus musculus, sc, read-out: ED50

Row | SMILES | AD50 (Mus musculus [1]) [mg/kg] | Specific Displacement [2] [%] | ED50 (Mus musculus [3]; [14]) [mg/kg] | Specific Displacement [4] [%] | Ki (Mu-type opioid receptor [5]) [nM] | ED50 (Mus musculus [6]; [15]) [mg/kg] | also measured
1 | CC(C)COC(=O)CNC(=O)C(Cc1ccccc1)CN1CCC(C)(c2cccc(O)c2)C(C)C1 (racemic) | >40 | 7 | 1.1 | 16 | 4 | 0.15 | 
2 | CC(C)COC(=O)CNC(=O)[C@@H](Cc1ccccc1)CN1CCC(C)(c2cccc(O)c2)C(C)C1 (single isomer, unassigned) |  | 4 | 1.7 | 55 | 19.2 |  | AD50 (Mus musculus [1]; 1.25 mg/kg): 16.8 mg/kg; ED50 (Mus musculus [6]): 0.02 mg/kg
3 | CC1CN(C[C@H](Cc2ccccc2)C(=O)NCC(=O)O)CCC1(C)c1cccc(O)c1 (stereo not given in full) | 9 |  | 0.84 |  | 0.77 | 0.04 | Ki [7]: 4.4 nM; Kb [8]: 2 nM; Kb [9]: 15.8 nM; Kb (Mu-type opioid receptor [10]): 0.2 nM; Ki [11]: 40 nM
4 | C=CCN1CC[C@]23c4c5ccc(O)c4O[C@H]2C(=O)CC[C@@]3(O)[C@H]1C5 [NALOXONE] | 0.08 |  |  |  |  | 0.05 | 
5 | CC(C)COC(=O)CNC(=O)[C@H](Cc1ccccc1)CN1CC[C@@](C)(c2cccc(O)c2)[C@@H](C)C1 | 29.6 | 0 | > 10 | 0 |  | 0.5 | Specific Displacement [12]: 11%; Specific Displacement [13]: 70%
6 | CC(C)COC(=O)CNC(=O)[C@H](Cc1ccccc1)CN1CC[C@](C)(c2cccc(O)c2)[C@H](C)C1 | >40 | 0 | > 10 | 34 |  | 0.37 | Specific Displacement [12]: 57%; Specific Displacement [13]: 92%
7 | C[C@H]1CN(CC(Cc2ccccc2)C(=O)O)CC[C@@]1(C)c1cccc(O)c1 (stereo not given in full) |  | 0 |  | 15 |  | 0.028 | 
8 | CC(C)COC(=O)CNC(=O)[C@@H](Cc1ccccc1)CN1CC[C@@](C)(c2cccc(O)c2)[C@@H](C)C1 |  |  |  |  | 5.5 |  | AD50 (Mus musculus [1]; 1.25 mg/kg): 11.6 mg/kg; ED50 (Mus musculus [3]): 1.3 mg/kg; ED50 (Mus musculus [6]): 0.044 mg/kg; Ki [11]: 23 nM
9 | C[C@H]1CN(CC(Cc2ccccc2)C(=O)NCC(=O)O)CC[C@@]1(C)c1cccc(O)c1 (stereo not given in full) | >40 | 23 | 2 | 53 |  | 0.028 | 
